Usually solubility stands for the concentration that dissolves in the medium under given conditions. A lower solubility goes with little dissolved substance. One may read the IC50 as the concentration needed to halve the response being measured.

The results in this text go back to patent US11298367B2, “Prodrugs of substituted triazole derivatives and uses thereof” (Bayer Aktiengesellschaft, priority 2017, dated 2022).

In data set [1] the target is T1, human V1a receptor (Homo sapiens, UniProt P37288).
T1 construct: expressed in transfected cells; host or cells: CHO K1 (Chinese hamster ovary), also stably transfected with a modified aequorin
Put plainly: Cellular in vitro assay for vasopressin receptor activity (V1a, aequorin luminescence). Conditions: selectivity ratio hV2/hV1a. It is filed as cell-based. As for the experimental part:
B-1. Cellular In Vitro Assay for Determining Vasopressin Receptor Activity
The identification of agonists and antagonists of the V1a and V2 vasopressin receptors from humans, rats and dogs as well as the quantification of the activity of the compounds of the invention is carried out using recombinant cell lines. These cell lines originally derive from a hamster's ovary epithelial cell (Chinese Hamster Ovary, CHO K1, ATCC: American Type Culture Collection, Manassas, Va. 20108, USA). The test cell lines constitutively express the human, rat or dog V1a or V2 receptors. In case of the Gaq-coupled V1a receptors, cells are also stably transfected with a modified form of the calcium-sensitive photoproteins aequorin (human and rat V1a) or obelin (dog V1a), which, after reconstitution with the cofactor coelenterazine, emit light when there are increases in free calcium concentrations [Rizzuto R, Simpson A W, Brini M, Pozzan T, Nature 358, 325-327 (1992); Illarionov B A, Bondar V S, Illarionova V A, Vysotski E S, Gene 153 (2), 273-274 (1995)]. The resulting vasopressin receptor cells react to stimulation of the recombinantly expressed Via receptors by intracellular release of calcium ions, which can be quantified by the resulting photoprotein luminescence. The Gs-coupled V2 receptors are stably transfected into cell lines expressing the gene for firefly luciferase under control of a CRE-responsible promoter. Activation of V2 receptors induces the activation of the CRE-responsive promoter via cAMP increase, thereby inducing the expression of firefly luciferase. The light emitted by photoproteins of V1a cell lines as well as the light emitted by firefly luciferase of V2 cell lines corresponds to the activation or inhibition of the respective vasopressin receptor. The bioluminescence of the cell lines is detected using a suitable luminometer [Milligan G, Marshall F, Rees S, Trends in Pharmacological Sciences 17, 235-237 (1996)].
Vasopressin V1a Receptor Cell Lines:
On the day before the assay, the cells are plated out in culture medium (DMEM/F12, 2% FCS, 2 mM glutamine, 10 mM HEPES, 5 μg/ml coelenterazine) in 384-well microtiter plates and kept in a cell incubator (96% humidity, 5% v/v CO2, 37C). On the day of the assay, test compounds in various concentrations are placed for 10 minutes in the wells of the microtiter plate before the agonist [Arg^8]-vasopressin at EC50 concentration is added. The resulting light signal is measured immediately in a luminometer.
Table 1A below lists individual IC50 values for the compounds of the invention (including racemic mixtures as well as separated enantiomers) that were obtained from cell lines transfected with the human V1a or V2 receptor. This means these IC50 values are the values for the prodrug and not for the underlying respective drug as the prodrug is mainly stable under the assay conditions.

Another data set can be described thus: Solubility. Conditions: 24 h room temperature, max. 500 μg/ml; for solubility at 24 h: thermodynamic from solid. It counts as physicochemical. As for the experimental part: For each substance 0.5-0.6 mg are weighed exactly. In each case, sufficient medium is added to the sample in such a way that a concentration of c=500 μg/ml is obtained. This sample solution is shaken for 24 h at room temperature and 1400 rpm.
A further sample weight of 0.5-0.6 mg is required for the DMSO calibration solution. This sample is filled with DMSO to a concentration of c=600 μg/ml. Two calibration solutions are prepared from this stock solution. In a 2 ml HPLC vial, 1000 μl of DMSO are initially introduced and 34.4 μl of the stock solution are pipetted (c=20 µg/ml). […] of this solution (c=20 μg/ml) are placed in a further 2 ml HPLC vial containing 500 μl of DMSO (c=2.5 μg/ml).
After shaking the test solutions, 230 μl of the supernatant are transferred into a centrifuge tube and centrifuged at 42 000 rpm (223 000 g) for 30 min. 180 μl of the supernatant are then taken and each diluted with DMSO (1:5 sample 1; 1:100 sample 2), and transferred to HPLC vials. The two calibration solutions and the dilute sample solutions are analyzed by HPLC. Quantification is performed over the corresponding peak areas.
Distilled water; trifluoroacetic acid (Merck; 1.08262.0100); acetonitrile (HPLC grade); DMSO (Merck; 8.02912.2500).
Fluka buffer, Order No. 33643 (11.76 g citric acid, 2.57 g sodium chloride and 2.72 g sodium hydroxide).
Fluka buffer, Order No. 33646 (3.52 g potassium dihydrogenphosphate, 7.26 g sodium hydrogen phosphate).
Solution of 6.18 g sodium chloride and 3.96 g sodium dihydrogen phosphate in 1 L distilled water, adjust with 1M aqueous sodium hydroxide solution to pH 7.4.
0.6057 g TRIS was dissolved in 95 ml water, adjust to pH 8.5 with aqueous hydrochloric acid, fill with water until 100 ml volume is reached.

The target of data set [2] is T1, human V1a receptor. The data set is described as follows: Cellular in vitro assay for verification of prodrug conversion into drug (with/without alkaline phosphatase). The settings on record: human V1a CHO cells. It counts as cell-based. As for the experimental part: B-4. Cellular In Vitro Assay for Verification of Prodrug Conversion into Drug
To verify the conversion of prodrugs into the respective drugs, the prodrugs are incubated with and without alkaline phosphatase. Cleavage of the phosphate moiety by alkaline phosphatase converts the prodrug into the underlying respective drug [Coleman J. E., Annu. Rev. Biophys. Biomol. Struct. 1992, 21, 441-483]. As prodrug and underlying respective drug show different IC50 values, the value of the prodrug after alkaline phosphatase treatment resembles the IC50 of the respective drug. The determination of IC50 values of compounds of the invention at the human V1a receptor is carried out using a recombinant cell line. The cell line originally derives from a hamster's ovary epithelial cell (Chinese Hamster Ovary, CHO K1, ATCC: American Type Culture Collection, Manassas, Va. 20108, USA). The test cell line constitutively expresses the human V1a receptor. Cells are also stably transfected with a modified form of the calcium-sensitive photoprotein aequorin which, after reconstitution with the cofactor coelenterazine, emits light upon increase in free calcium concentration [Rizzuto R, Simpson A W, Brini M, Pozzan T, Nature 358, 325-327 (1992); Illarionov B A, Bondar V S, Illarionova V A, Vysotski E S, Gene 153 (2), 273-274 (1995)]. The resulting vasopressin receptor cell reacts to stimulation of the recombinantly expressed V1a receptor by intracellular release of calcium ions, which can be quantified by the resulting luminescence of photoprotein. The bioluminescence of the cell line is detected using a suitable luminometer [Milligan G, Marshall F, Rees S, Trends in Pharmacological Sciences 17, 235-237 (1996)].
On the day before the assay, the cells are seeded in culture medium (DMEM/F12, 2% FCS, 2 mM glutamine, 10 mM HEPES, 5 μg/ml coelenterazine) in 384-well microtiter plates and kept in a cell incubator (96% humidity, 5% v/v CO2, 37C). On the day of the assay, 100 μl of test compounds at a concentration of 100 μM are incubated for 15 minutes with 500 units alkaline phosphatase at 37° C. in tyrode buffer (20 mM HEPES, 130 mM NaCl, 5 mM KCl, 5 mM NaHCO3, 2 mM MgCl2, pH 7,4). After incubation compounds are immediately diluted and placed for 10 minutes at 37° C. on the before seeded V1a cells. For detection of antagonistic activity of the compounds [Arg^8]-vasopressin at EC50 concentration is added and the resulting light signal is measured immediately in a luminometer.

Setting [3] is: Tris buffer pH 8.5, pH 8.5, aqueous buffer, pH = 8.5 Tris buffer.
Setting [4] is: pre-incubation 15 min with 500 units alkaline phosphatase at 37° C., read-out: IC50 with AP.
Setting [5] is: without alkaline phosphatase, read-out: IC50 without AP.

Molecules are shown by their SMILES. ≈ marks a conversion by molar mass, not a printed value. Where two headings read alike, the source gives them in different places.

T1 sequence (P37288 whole entry): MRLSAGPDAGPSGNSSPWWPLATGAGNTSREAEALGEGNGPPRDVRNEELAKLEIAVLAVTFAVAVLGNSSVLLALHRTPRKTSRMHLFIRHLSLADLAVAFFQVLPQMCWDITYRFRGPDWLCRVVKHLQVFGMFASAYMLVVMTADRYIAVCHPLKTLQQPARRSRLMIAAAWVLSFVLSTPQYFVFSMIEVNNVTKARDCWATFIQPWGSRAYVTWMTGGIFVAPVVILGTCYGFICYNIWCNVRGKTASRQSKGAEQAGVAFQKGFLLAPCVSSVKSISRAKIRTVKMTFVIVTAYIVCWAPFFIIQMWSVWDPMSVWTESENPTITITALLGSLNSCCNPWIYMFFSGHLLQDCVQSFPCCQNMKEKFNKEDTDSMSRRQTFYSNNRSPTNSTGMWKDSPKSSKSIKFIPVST

In the case of `NC(=O)c1nc(Cn2nc(-c3ccc(Cl)cc3)n(C[C@H](O)C(F)(F)F)c2=O)nn1-c1ccccc1C(F)(F)F` [Example 6A, 3-({3-(4-Chlorophenyl)-5-oxo-4-[(2S)-3,3,3-trifluoro-2-hydroxypropyl]-4,5-dihydro-1H-1,2,4-triazol-1-yl}methyl)-1-[2-(trifluoromethyl)phenyl]-1H-1,2,4-triazole-5-carboxamide], on human V1a receptor [1], the “ratio IC50 hV2/hV1a” value was 41.4. In the data set “Solubility” (setting [3]), this compound came in with a solubility at 24 h of 4.3 µg/mL (≈ 7.47 µM). For the same compound, the Solubility result in the data set “Solubility” (pH = 4 citrate buffer) and in the data set “Solubility” (pH = 7.0 buffer) was “not detectable” throughout. Further, the IC50 on human V1a receptor [2] (setting [4]) and on human V1a receptor [2] (setting [5]) was 1.35 nM throughout.

As for `NC(=O)c1nc(Cn2nc(-c3ccc(Cl)cc3)n(C[C@H](O)C(F)(F)F)c2=O)nn1-c1ncccc1Cl` [Example 8A, 3-({3-(4-Chlorophenyl)-5-oxo-4-[(2S)-3,3,3-trifluoro-2-hydroxypropyl]-4,5-dihydro-1H-1,2,4-triazol-1-yl}methyl)-1-(3-chloropyridin-2-yl)-1H-1,2,4-triazole-5-carboxamide], the “ratio IC50 hV2/hV1a” value at human V1a receptor [1] turned out to be 38.2. Also, the solubility at 24 h amounted to 4 µg/mL (≈ 7.36 µM) in “Solubility” (setting [3]); 5.9 µg/mL (≈ 10.9 µM) in “Solubility” (citrate buffer pH 4, pH 4, aqueous buffer, pH = 4 citrate buffer); 2.8 µg/mL (≈ 5.15 µM) in “Solubility” (phosphate buffer pH 7, pH 7, aqueous buffer, pH = 7.0 buffer). The half-maximal inhibitory concentration (IC50) was found to be 1.1 nM at human V1a receptor [2] (setting [4]) and 1.7 nM on human V1a receptor [2] (setting [5]).
